Source: patent US20120108431A1, “PLANT GROWTH REGULATOR ADDITIVE” (TAMINCO, NAAMLOZE VENNOOTSCHAP, priority 2009, published 2012)
Values joined by “and” are separate entries in the source; they are usually repeats but may differ in a detail not shown here. Equal entries are not always repeated.

What was measured:
Format in all cases: in vivo
Winter barley varieties = Winter barley varieties UK field trials, mean root weight per plant; details: for Mean Root Weight Per Plant (g), individual replicate: GS33, individual replicates, listed as B.; for Mean Root Weight Per Plant (g), Mean: GS33, mean of replicates; for Increase in Mean Root Weight Per Plant: GS33, vs A. Control
Text: G. WINTER BARLEY VARIETIES—UK field trials. Formulations applied at mid-tillering and measured at third node stage (GS33).
(§1) Treatments compared: • A. Control vs • B. Chlormequat chloride (620 g/litre) applied at 1.0 litre in 250 litres water per hectare. • C. Anthranilic Acid (1 g/ha)+Acetaminophen (3 g/ha) in 250 litres water per hectare. • B.+C. Combination of B. and C. above, in 250 litres water per hectare.
Mean Root Weight Per Plant (g)—three winter barley varieties: individual replicates and mean values.

Winter barley = Winter barley Trial 5, field trial, mean of nine varieties
Text: (§2) The applied concentration of chemical can vary widely depending on the water volume applied to plants as well as other factors such as plant age and size, and plant sensitivity to the product. Typical rates of AN-related compounds would be 1-10 g/ha (preferably and as used in these trials, 1 g per hectare was applied), typical rates of acetaminophen or its derivatives would be 1-10 g/ha (preferably and as used in these trials, 3 g per hectare was applied). Typical rates of the agrochemically acceptable additive of the present invention would be 1-10 g/ha (preferably and as used in these trials, less than 3 g per hectare was applied). The rate of other components such as spreaders and stickers can be 50-200 ml per ha.
E. WINTER BARLEY TRIAL 5—Field trial, sown 14 Oct. 2007. Mean of Nine Varieties—mean values from varieties Pearl, Flagon, Cassata, Wintmalt, Saffron, Suzuka, Marcorel, Sequel, Volume. Location: Great Dunmow, Essex, UK, 2008. Seed rate 400 seeds/sq metre. Formulations applied mid-tillering (GS23), and assessed at GS33 and at maturity.

Winter wheat varieties = Winter wheat varieties UK field trials, mean root weight per plant; details: for Mean Root Weight Per Plant (g), individual replicate: GS33, individual replicates, listed as B.; for Mean Root Weight Per Plant (g), Mean: GS33, mean of replicates; for Increase in Mean Root Weight Per Plant: GS33, vs A. Control
Text: F. WINTER WHEAT VARIETIES—UK field trials. Formulations applied at mid-tillering and measured at third node stage (GS33).
as §1
Mean Root Weight Per Plant (g)—three winter wheat varieties: individual replicates and mean values. Mean root weight per plant (g) is a mean value from 10 median plants taken from a representative 20 plant sample per plot.

Winter wheat = Winter wheat Trial 4, field trial, mean of nine varieties
Text: as §2
D. WINTER WHEAT TRIAL 4—Field trial, sown 18 Oct. 2007. Mean of Nine Varieties—mean values from varieties Solstice, Battalion, Duxford, Marksman, Gallant, Panorama, Qplus, Cassius, Alchemy. Location: Great Dunmow, Essex, UK, 2008. Seed rate 400 seeds/sq metre. Formulations applied mid-tillering (GS23), and assessed at GS33 and at maturity.

Soybean = Soybean Trial 1, pot trial, foliar spray at V2-V3; details: soybean
Navy bean cv Primel = experiment: Navy bean Trial 2, pot trial, foliar spray at V2-V3; details: navy bean
Winter wheat cv Limerick = experiment: Winter wheat Trial 3, pot trial, sprayed at GS23
Procedure: The applied concentration of chemical can vary widely depending on the water volume applied to plants as well as other factors such as plant age and size, and plant sensitivity to the product. […] The rate of other components such as spreaders and stickers can be 50-200 ml per ha. C. […] Sprayed: 10 June, at GS23 (early-mid tillering). Plants were scored/assessed at GS33 on 12 July, with other measurements at crop maturity.

[1] = score 0-9, 28 days after spraying
[2] = increase over the line given as 0 (untreated or growth regulator alone)
[3] = winter wheat pots, increase over the line given as 0 (untreated or growth regulator alone)

C[N+](C)(C)CCCl [CCC, Chlormequat chloride]
Mean Root Weight Per Plant (g), individual replicate (Winter barley varieties; winter barley variety Flagon): 4.0 g (2×) and 3.9 g and 4.2 g
Mean Root Weight Per Plant (g), Mean (Winter barley varieties; winter barley variety Flagon): 4.03 g
Increase in Mean Root Weight Per Plant (Winter barley varieties; winter barley variety Flagon): +1.65 g
Mean Root Weight Per Plant (g), individual replicate (Winter barley varieties; winter barley variety Marcorel): 2.8 g (3×) and 2.9 g
Mean Root Weight Per Plant (g), Mean (Winter barley varieties; winter barley variety Marcorel): 2.83 g
Increase in Mean Root Weight Per Plant (Winter barley varieties; winter barley variety Marcorel): +0.85 g
Mean Root Weight Per Plant (g), individual replicate (Winter barley varieties; winter barley variety Suzuka): 4.0 g and 3.0 g (3×)
Mean Root Weight Per Plant (g), Mean (Winter barley varieties; winter barley variety Suzuka): 3.25 g
Increase in Mean Root Weight Per Plant (Winter barley varieties; winter barley variety Suzuka): +0.90 g
Final Ear Wt (10 ears) (Winter barley; CCC 1.0 l/ha): 22.8 g
Mean Root Diameter GS33 (cm) (Winter barley; GS33, CCC 1.0 l/ha): 2.05 cm
Mean Root Length GS33 (cm) (Winter barley; GS33, CCC 1.0 l/ha): 3.66 cm
Mean Root Weight GS33 (Winter barley; GS33, CCC 1.0 l/ha): 3.06 g
No of “large” Stems GS33 (Winter barley; GS33, CCC 1.0 l/ha): 4.23
Total Stem Number GS33 (Winter barley; GS33, CCC 1.0 l/ha): 6.01
Mean % Lodged Maturity (Winter barley; at maturity, CCC 1.0 l/ha): 26.3%
Mean Root Weight Per Plant (g), individual replicate (Winter wheat varieties; winter wheat variety Battalion): 4.1 g and 4.3 g and 4.4 g and 4.2 g
Mean Root Weight Per Plant (g), Mean (Winter wheat varieties; winter wheat variety Battalion): 4.25 g
Increase in Mean Root Weight Per Plant (Winter wheat varieties; winter wheat variety Battalion): +1.12 g
Mean Root Weight Per Plant (g), individual replicate (Winter wheat varieties; winter wheat variety Marksman): 4.3 g and 4.4 g (2×) and 4.5 g
Mean Root Weight Per Plant (g), Mean (Winter wheat varieties; winter wheat variety Marksman): 4.40 g
Increase in Mean Root Weight Per Plant (Winter wheat varieties; winter wheat variety Marksman): +1.10 g
Mean Root Weight Per Plant (g), individual replicate (Winter wheat varieties; winter wheat variety Solstice): 3.6 g (2×) and 3.7 g and 3.8 g
Mean Root Weight Per Plant (g), Mean (Winter wheat varieties; winter wheat variety Solstice): 3.68 g
Increase in Mean Root Weight Per Plant (Winter wheat varieties; winter wheat variety Solstice): +0.9 g
Final Ear Wt (10 ears) (Winter wheat; CCC 1.0 l/ha): 18.4 g
Mean Root Diameter GS33 (cm) (Winter wheat; GS33, CCC 1.0 l/ha): 2.51 cm
Mean Root Length GS33 (cm) (Winter wheat; GS33, CCC 1.0 l/ha): 2.40 cm
Mean Root Weight GS33 (Winter wheat; GS33, CCC 1.0 l/ha): 4.10 g
No of “large” Stems GS33 (Winter wheat; GS33, CCC 1.0 l/ha): 2.95
Total Stem Number GS33 (Winter wheat; GS33, CCC 1.0 l/ha): 4.40
Mean % Lodged Maturity (Winter wheat; at maturity, CCC 1.0 l/ha): 1.7%
No of Large Pod Bearing Branches/Plant at Harvest (Soybean; at harvest): 1.0
Final Seed Yield at Harvest (g per pot) (Soybean; one plant per pot): 36.0 g per pot
Plant Biomass Score (0-9) at Harvest (Soybean; score 0-9): 6.0
Rooting (0-9) + 28 Days (Soybean; [1]): 4.4
Final Seed Yield + % (Soybean; [2]): 0%
No of Large Pod Bearing Branches/Plant + % (Soybean; [2]): 0%
Plant Biomass Score + % (Soybean; [2]): 0%
Rooting + % (Soybean; [2]): 0%
No of Large Pod Bearing Branches/Plant at Harvest (Navy bean cv Primel; at harvest): 1.4
Final Seed Yield at Harvest (g per pot) (Navy bean cv Primel; one plant per pot): 55.6 g per pot
Plant Biomass Score (0-9) at Harvest (Navy bean cv Primel; score 0-9): 5.4
Rooting (0-9) + 28 Days (Navy bean cv Primel; [1]): 7.4
Final Seed Yield + % (Navy bean cv Primel; [2]): 0%
No of Large Pod Bearing Branches/Plant + % (Navy bean cv Primel; [2]): 0%
Plant Biomass Score + % (Navy bean cv Primel; [2]): 0%
Rooting + % (Navy bean cv Primel; [2]): 0%
Total No of Shoots/Plant at GS33 (Winter wheat cv Limerick; winter wheat pots, GS33): 3.8
Total No of “Large” Shoots/Plant at GS33 (Winter wheat cv Limerick; winter wheat pots, GS33): 2.6
Rooting (0-9) + 28 Days (Winter wheat cv Limerick; winter wheat pots, score 0-9, 28 days after spraying): 6.0
Final Seed Yield + % (Winter wheat cv Limerick; [3]): 0%
Rooting + % (Winter wheat cv Limerick; [3]): 0%
Total No of Shoots/Plant + % (Winter wheat cv Limerick; [3]): 0%
Total No of “Large” Shoots/Plant + % (Winter wheat cv Limerick; [3]): 0%
Final Seed Yield at Harvest (g per pot) (Winter wheat cv Limerick; winter wheat, eight plants per pot): 36.4 g per pot
